Here are results for one compound from US7122530B2, “24-hydroxyvitamin D, analogs and uses thereof” (Genzyme Corporation, priority 1998, dated 2006).

The structures appear in SMILES notation.

Data set [1] is described as follows: In vivo generation of 1α,24-(OH)2-D2 in vitamin D-deficient rats (plasma metabolites by HPLC). The note with it: vitamin D-deficient rats; oral or intraperitoneal supplementation; HPLC.
Procedure: 24-OH-D2 was administered (either oral or intraperitoneal supplementation) to vitamin D-deficient rats. Lipid extracts of the plasma were prepared and the metabolites purified by the method of Horst et al. (Horst, R. L., Koszewski, N. J. and Reinhardt, T. A., Biochem., 29:578–82 (1990) and incorporated herein by reference) described below for synthesizing standard biological 1α,24-(OH)2D2.
Data set [2] relates to dermatitis (contact and ectopic) patients. Briefly: Double blind study of oral 24-OH-D2 formulation in dermatitis (contact and ectopic). In kind it is in vivo, human. The note with it: daily oral 10.0 to 20.0 μg, four to six weeks. As to the method: An oral dosage formulation containing 24-OH-D2 is evaluated in a double blind study for therapeutic efficacy of the formulation in the treatment of dermatitis (contact and ectopic). The formulation evaluated contains 10.0 to 20.0 μg of 24-OH-D2. […] The patients are treated in an outpatient clinic and are divided into an experimental and control population. They are instructed to take the medication once a day, in the morning before breakfast.
In each patient (experimental and control) an area of the skin containing a lesion is selected which is ordinarily covered by clothing, and the patients are instructed not to expose the skin area selected for study to sunlight. The area of the lesion is estimated and recorded, and the lesion(s) is photographed. Relevant details of the photographic procedure are recorded so as to be reproduced when the lesions are next photographed (distance, aperture, angle, background, etc.).
Evaluations of erythema, scaling, and thickness are conducted at weekly intervals by a physician. The final evaluation is usually carried out at the end of four to six weeks of treatment.

The test system of data set [3] is patients with advanced androgen-independent prostate cancer. Description: Open-label two-phase study of oral 24-(OH)-D2 in prostate cancer. In kind it is in vivo. The note with it: for progression of metastatic disease (CAT scans, X-rays and bone scans): second phase, after one and two years. The text has this: Patients with advanced androgen-independent prostate cancer participate in an open-label study of 24-(OH)-D2. […] On admission to the study, patients begin a course of therapy with oral 24-(OH)-D2 lasting 26 weeks, while discontinuing any previous use of calcium supplements, vitamin D supplements, and vitamin D hormone replacement therapies. During treatment, the patients are monitored at regular intervals for: (1) hypercalcemia, hyperphosphatemia, hypercalciuria, hyperphosphaturia and other toxicity; (2) evidence of changes in the progression of metastatic disease; and (3) compliance with the prescribed test drug dosage.
The study is conducted in two phases. During the first phase, the maximal tolerated dosage (MTD) of daily oral 24-(OH)D2 is determined by administering progressively higher dosages to successive groups of patients. All doses are administered in the morning before breakfast. The first group of patients is treated with 25.0 μg of 24-(OH)D2. Subsequent groups of patients are treated with 50.0, 75.0 and 100.0 μg/day. Dosing is continued uninterrupted for the duration of the study unless serum calcium exceeds 11.6 mg/dL, or other toxicity of grade 3 or 4 is observed, in which case dosing is held in abeyance until resolution of the observed toxic effect(s) and then resumed at a level which has been decreased by 10.0 μg.
During the second phase, patients are treated with 24-(OH)D2 for 24 months at 0.5 and 1.0 times the MTD.

For data set [4], the system named is cytotoxic thymus-derived lymphocyte (CTL) activity. Description: Immunological testing: CTL activity in mice immunized with allogeneic P815 tumor cells. The format is in vivo, C57BL/6 mice. The note with it: both tests: 5 micrograms daily i.p., or 10 micrograms i.p. twice; assay 10 days after immunization. The method, then: Female C57BL/6 mice are used between the ages of 9–12 weeks. Mice are given food and water ad libitum and are kept in a 12-hour light and 12-hour dark cycle.
A known balanced salt solution (BSS) is prepared and supplemented to 0.01 molar with HEPES buffer.
The test compound, 24-OH-D2, is dissolved in dimethylsulfoxide at final concentrations of 0.2 or 0.4 mg per ml. When working with vitamin D compounds, conditions of reduced lighting were employed.
Mice are apportioned at 4 per group and are inoculated intraperitoneally with 3×10^6 allogeneic P815 tumor cells and the resulting cytotoxic thymus-derived lymphocyte (CTL) activity is assessed 10 days later. Mice are treated by the intraperitoneal route with 25 microliters of test compound dissolved in dimethylsulfoxide or with dimethylsulfoxide only (vehicle control). […]
Ten days after immunization of mice with P815 cells, single spleen cell suspensions are prepared by passage of spleens through a steel mesh into BSS and are subsequently washed twice with BSS. […] Cytotoxic T lymphocyte activity is determined individually on spleen cells from each animal in each group and the results are expressed as the mean CTL activity (as percent specific Cr release) of each group ± the standard deviation.

In data set [5] the test system is renal patients with secondary hyperparathyroidism. Description: Clinical trial of 24-OH-D2 for secondary hyperparathyroidism in end stage renal disease. The format is in vivo, human. As to the method: Thirty renal patients are enrolled in a clinical trial to study secondary hyperparathyroidism. The patients show baseline iPTH levels greater than 1000 pg/mL. An initial dose of 24-OH-D2 (50 μg 3 times/week) is increased (maximum, 100 μg 3 times/ week) or decreased as necessary to attain and maintain iPTH in the range of 150–300 pg/mL. After 11–12 weeks of treatment, the iPTH levels of the patients decrease to below 1000 pg/mL, and in many cases to below 500 pg/mL.

With `C=C1CC[C@H](O)C/C1=C/C=C1\CCC[C@]2(C)[C@@H]([C@H](C)/C=C/C(C)(O)C(C)C)CC[C@@H]12` (some centres unmarked) [24-OH-D2, 24-hydroxyvitamin D2], the “metabolite isolated from plasma lipid extracts versus standard 1α,24-(OH)2D2” value in data set [1] is recorded as “co-migrated on HPLC with the standard 1α,24-(OH)2D2”. Moreover, in data set [2], the “degree of erythema, scaling, and thickness versus control patients” value was “significantly reduces”. Also, in data set [3] (first phase), the “MTD level relative to what can be achieved with 1α,25-(OH)2D3” value is recorded as 10- to 50 fold and the “circulating levels of 1α,25-(OH)2D3” value is reported as “suppressed, often to undetectable levels”. Moreover, in data set [3] (in vivo), the “levels of circulating 24-(OH)D2 versus dosage administered” value was “increase proportionately with the dosage administered”; the “maximum levels of circulating 24-(OH)D2” value is reported as “above 100 pg/mL”; the “serum and urine calcium” value is listed as “elevated in a dose responsive manner”. The “progression of metastatic disease (CAT scans, X-rays and bone scans)” value in data set [3] (higher dosage (1.0 times the MTD)) is “stable disease and partial or complete remission in many patients”. Also, the “progression of metastatic disease (CAT scans, X-rays and bone scans)” value in data set [3] (lower dosage (0.5 times the MTD)) is “stable disease or partial remission in many patients”. Besides, the “bone pain associated with metastatic disease” value in data set [3] (treated with the MTD for at least six months) was “significantly diminished”. Besides, in data set [4], the “CTL activity versus vehicle control” value is reported as “statistically significant reduction”. In data set [5] (after 11–12 weeks, baseline greater than 1000 pg/mL, 50 μg 3 times/week, titrated), the “iPTH levels of the patients” value is on record as “below 1000 pg/mL”. In data set [5] (after 11–12 weeks, in many cases), the “iPTH levels, in many cases” value is on record as “below 500 pg/mL”. The episodes of hypercalcemia result in data set [5] (during the study) was “few episodes of hypercalcemia”.
